# Measurements taken from ChEMBL document CHEMBL1131703, “Azaindole derivatives with high affinity for the dopamine D4 receptor: synthesis, ligand binding studies and comparison of molecular electrostatic potential maps” (Bioorg Med Chem Lett, 1999).
# Legend:
# [1] = molecular target: D(3) dopamine receptor (Homo sapiens, UniProt P35462); assay: Binding affinity evaluated for the displacement of [3H]-spiperone against human dopamine receptor D3
# [2] = molecular target: T1, D(4) dopamine receptor (Homo sapiens, UniProt P21917); assay: Binding affinity evaluated for the displacement of [3H]spiperone against human dopamine receptor D4
# T1 sequence (P21917 whole entry): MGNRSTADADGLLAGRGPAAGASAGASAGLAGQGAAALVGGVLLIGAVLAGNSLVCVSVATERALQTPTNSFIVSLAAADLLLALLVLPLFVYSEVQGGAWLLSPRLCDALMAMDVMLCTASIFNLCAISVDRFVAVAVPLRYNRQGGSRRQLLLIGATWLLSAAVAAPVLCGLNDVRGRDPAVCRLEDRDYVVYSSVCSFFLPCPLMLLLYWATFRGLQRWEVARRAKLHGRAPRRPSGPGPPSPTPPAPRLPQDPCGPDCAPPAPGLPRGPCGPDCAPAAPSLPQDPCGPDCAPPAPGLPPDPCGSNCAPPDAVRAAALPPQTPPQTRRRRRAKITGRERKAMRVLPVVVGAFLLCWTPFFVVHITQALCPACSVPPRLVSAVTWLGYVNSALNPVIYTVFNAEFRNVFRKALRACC
# [3] = molecular target: D(1A) dopamine receptor (Bos taurus, UniProt Q95136); assay: Binding affinity was evaluated for the displacement of [3H]-SCH- 23390 against bovine Dopamine receptor D1
# [4] = molecular target: D(2) dopamine receptor (Bos taurus, UniProt P20288); assay: Binding affinity was evaluated for the displacement of [3H]spiperone against bovine Dopamine receptor D2
# Chain of D(2) dopamine receptor (P20288 whole entry): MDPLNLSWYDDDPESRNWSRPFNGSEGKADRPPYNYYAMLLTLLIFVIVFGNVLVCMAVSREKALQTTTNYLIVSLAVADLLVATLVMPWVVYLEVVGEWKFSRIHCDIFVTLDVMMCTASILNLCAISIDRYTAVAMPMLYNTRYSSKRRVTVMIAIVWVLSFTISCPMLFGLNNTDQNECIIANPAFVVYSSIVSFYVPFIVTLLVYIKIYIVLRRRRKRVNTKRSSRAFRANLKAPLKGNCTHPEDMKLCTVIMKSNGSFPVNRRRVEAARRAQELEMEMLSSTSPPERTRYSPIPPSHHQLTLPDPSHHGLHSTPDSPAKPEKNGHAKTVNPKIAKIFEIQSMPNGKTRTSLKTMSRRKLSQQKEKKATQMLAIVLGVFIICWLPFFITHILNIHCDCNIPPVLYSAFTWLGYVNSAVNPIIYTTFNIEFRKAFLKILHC
# Chain of D(1A) dopamine receptor (Q95136 whole entry): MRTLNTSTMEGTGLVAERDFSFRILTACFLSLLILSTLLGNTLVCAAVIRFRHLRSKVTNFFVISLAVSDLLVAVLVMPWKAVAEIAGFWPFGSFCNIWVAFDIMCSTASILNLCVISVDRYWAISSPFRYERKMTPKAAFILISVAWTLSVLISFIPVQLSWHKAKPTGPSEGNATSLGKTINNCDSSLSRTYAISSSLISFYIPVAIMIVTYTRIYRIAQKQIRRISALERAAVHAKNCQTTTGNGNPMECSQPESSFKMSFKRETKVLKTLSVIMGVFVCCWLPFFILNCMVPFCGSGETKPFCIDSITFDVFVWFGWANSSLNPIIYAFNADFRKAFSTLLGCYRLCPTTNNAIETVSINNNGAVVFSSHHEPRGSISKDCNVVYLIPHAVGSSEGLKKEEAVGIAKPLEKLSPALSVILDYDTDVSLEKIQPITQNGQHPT
# Chain of D(3) dopamine receptor (P35462 whole entry): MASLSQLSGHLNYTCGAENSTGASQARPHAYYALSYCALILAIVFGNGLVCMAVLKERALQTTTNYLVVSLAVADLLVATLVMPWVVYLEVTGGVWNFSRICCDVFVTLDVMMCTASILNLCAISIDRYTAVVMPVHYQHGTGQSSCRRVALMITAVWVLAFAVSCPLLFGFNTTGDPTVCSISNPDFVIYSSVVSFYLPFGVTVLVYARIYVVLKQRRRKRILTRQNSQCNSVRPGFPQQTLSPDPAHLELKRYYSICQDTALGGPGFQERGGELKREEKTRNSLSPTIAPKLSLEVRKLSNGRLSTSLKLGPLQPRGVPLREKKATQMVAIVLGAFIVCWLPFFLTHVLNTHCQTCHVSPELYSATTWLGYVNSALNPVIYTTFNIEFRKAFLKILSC
Compound,Ki [1] [µM],Ki [2] [µM],Ki [3] [µM],Ki [4] [µM]
O=C(c1cnn2ccccc12)N1CCN(c2ccc(Cl)cc2)CC1,61,23,> 100,30
Ic1ccc(N2CCN(Cc3cnn4ccccc34)CC2)cc1,6.7,0.003,17,1.4
